# Reference: USRE35230E (priority 1994, dated 1996)
# Key:
# (R)-oxynitrilase = assay: Relative rates of dehydrocyanation of cyanohydrins by soluble (R)-oxynitrilase (initial rate studies); format: biochemical; details: 0.21 mM cyanohydrin, dehydrocyanation relative to benzaldehyde cyanohydrin
# Protocol: The following standardized assay was utilized to measure the activity of oxynitrilase set forth in the Examples which follow. A solution of enzyme was prepared in 0.1M (pH 5.5) citrate buffer. A 3-ml sample of enzyme solution was combined with 30 microliters of 0.21M benzaldehyde cyanohydrin and the rate of increase in absorbance at 250 nm recorded. Then, the same procedure was followed with a 3-ml sample of 0.1M (pH 5.5) citrate buffer to obtain the background, non-enzymatic, reaction. The activity in units/ml was calculated by subtracting the slope of the non-enzymatic reaction from the slope of the enzymatic reaction and converting the absorbance change with time to concentration change with time using a molar extinction coefficient of 13,200 M^-1 cm^-1.
# Relative rates of dehydrocyanation of different cyanohydrins subjected to the action of the soluble catalyst (R)-oxynitrilase were determined from initial rate studies. A solution of (R)-oxynitrilase was combined with a 0.21 mM solution of cyanohydrin and the rate of increase of absorbance at the wavelength corresponding to the absorption maxima was monitored as described above in connection with the measurement of catalyst activity. The measured activity was calculated using the appropriate extinction coefficient for the corresponding aldehyde.
# [1] = benzaldehyde cyanohydrin to benzaldehyde and hydrogen cyanide; cited from earlier work
# [2] = Permeability in supported-gas membrane system of FIG. 1; details: both dehydrocyanation products approximately equal
SMILES,Relative Rate ((R)-oxynitrilase),dehydrocyanation equilibrium constant [1] [mM],average permeability relative to the permeability of benzaldehyde cyanohydrin [2]
Cc1ccc(C(O)C#N)o1 (stereo not drawn) [5-Methylfurfural cyanohydrin],2.8,,
"N#CC(O)c1ccccc1 (stereo not drawn) [Benzaldehyde cyanohydrin, reference compound]",1.0,5,
N#CC(O)C=Cc1ccccc1 (stereo not drawn) [Cinnamaldehyde cyanohydrin],0.05,,
CC=CC(O)C#N (stereo not drawn) [Crotonaldehyde cyanohydrin],0.90,,
N#CC(O)c1ccco1 (stereo not drawn) [Furfural cyanohydrin],2.5,,
Cc1ccc(C(O)C#N)cc1 (stereo not drawn) [P-Tolualdehyde cyanohydrin],0.45,,
N#CC(O)c1ccc2c(c1)OCO2 (stereo not drawn) [Piperonal cyanohydrin],2.1,,
O=Cc1ccccc1 [benzaldehyde],,,roughly 700 times
COc1cccc(C(O)C#N)c1 (stereo not drawn) [m-Anisaldehyde cyanohydrin],0.19,,
COc1ccc(C(O)C#N)cc1 (stereo not drawn) [p-Anisaldehyde cyanohydrin],0.17,,
CCc1ccc(C(O)C#N)cc1 (stereo not drawn) [p-Ethylbenzaldehyde cyanohydrin],0.13,,
